The values that follow come from ChEMBL document CHEMBL3826905, “1'-Homonucleosides and their structural analogues: A review” (Eur J Med Chem, 2016).

In brackets after ≈: the same amount, converted by molar mass. Where only a bound is given, the exact number is not on record here.

A short description of assay [1]: Cytostatic activity against mouse L1210/0 cells. Conditions: Mus musculus, L1210/0. It counts as functional, cell-based.
The subject of assay [2] is MOLT-4. The assay can be described thus: Cytostatic activity against human Molt4/C8 cells. The settings on record: Homo sapiens, MOLT-4. It counts as functional, cell-based.
Assay [3] relates to CCRF-CEM. Briefly: Cytostatic activity against human CEM/0 cells. It counts as functional, cell-based.
The subject of assay [4] is Hepatitis C virus. Briefly: Antiviral activity against Hepatitis C virus. It counts as functional, organism-based, Hepacivirus hominis.
The nature of assay [5]: Antiproliferative activity against mouse L1210/0 cells after 48 hrs by trypan blue staining method. Type of assay: functional, cell-based. The settings on record: L1210/0, 48 h.
For assay [6], the system named is Influenza A virus. Briefly: Antiviral activity against Influenza A virus. Type of assay: functional, organism-based.
The nature of assay [7]: Antiproliferative activity against human CEM/0 cells. Conditions: CCRF-CEM. It counts as functional, cell-based.
Assay [8] in a line: Antiproliferative activity against mouse L1210/0 cells. It counts as functional, cell-based.
Assay [9] is described as follows: Antiproliferative activity against human Molt4/C8 cells. Type of assay: functional, cell-based. The settings on record: MOLT-4.
For assay [10], the system named is Cytomegalovirus. The assay can be described thus: Antiviral activity against Cytomegalovirus AD169 infected in HEL cells. It counts as functional, organism-based. Conditions: Human betaherpesvirus 5, AD169, HEL.
Assay [11] has as its system Cytomegalovirus. Briefly: Antiviral activity against Cytomegalovirus Davis 07/1 infected in HEL cells. Type of assay: functional, organism-based. Conditions: Human betaherpesvirus 5, Davis 07/1, HEL.
Assay [12] concerns Human alphaherpesvirus 3. Briefly: Antiviral activity against TK-deficient Varicella-zoster virus infected in HEL cells. Conditions: Human alphaherpesvirus 3, HEL. It counts as functional, organism-based.
A short description of assay [13]: Inhibition of Escherichia coli methionyl-tRNA synthetase assessed as decrease in [35S]methionyl-tRNA generation.
Assay [14] deals with Isoleucine--tRNA ligase (Escherichia coli K-12, UniProt P00956). The assay can be described thus: Inhibition of Escherichia coli isoleucyl-tRNA synthetase assessed as decrease in [3H]isoleucyl-tRNA generation.
Assay [15] addresses T1, Inosine-uridine preferring nucleoside hydrolase (Crithidia fasciculata, UniProt Q27546).
T1 sequence (Q27546 whole entry): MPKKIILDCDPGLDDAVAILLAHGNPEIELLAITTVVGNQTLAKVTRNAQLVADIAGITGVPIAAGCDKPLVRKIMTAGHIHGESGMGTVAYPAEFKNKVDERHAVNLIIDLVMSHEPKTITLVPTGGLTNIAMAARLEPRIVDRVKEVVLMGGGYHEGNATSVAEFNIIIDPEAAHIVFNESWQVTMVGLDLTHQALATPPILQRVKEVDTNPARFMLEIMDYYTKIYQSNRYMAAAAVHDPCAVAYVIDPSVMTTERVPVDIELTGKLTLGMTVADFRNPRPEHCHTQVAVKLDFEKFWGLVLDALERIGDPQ
Briefly: Inhibition of Crithidia fasciculata inosine-uridine nucleoside hydrolase expressed in Escherichia coli using p-nitrophenyl beta-D-ribofuranoside as substrate by xanthine oxidase coupled enzyme assay.

The target in assay [16] is T2, Inosine-adenosine-guanosine-nucleoside hydrolase (Trypanosoma brucei brucei, UniProt O15727).
T2 sequence (O15727 whole entry): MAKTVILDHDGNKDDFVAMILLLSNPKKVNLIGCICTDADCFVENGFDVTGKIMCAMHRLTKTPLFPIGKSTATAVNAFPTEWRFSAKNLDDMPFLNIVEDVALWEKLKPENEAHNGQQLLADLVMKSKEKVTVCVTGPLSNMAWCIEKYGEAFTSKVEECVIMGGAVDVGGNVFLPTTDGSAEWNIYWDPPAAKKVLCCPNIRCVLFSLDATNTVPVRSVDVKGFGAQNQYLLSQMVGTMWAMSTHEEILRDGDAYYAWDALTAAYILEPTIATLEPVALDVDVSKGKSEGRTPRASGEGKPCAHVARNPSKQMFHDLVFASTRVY
Briefly: Inhibition of Trypanosoma brucei brucei inosine-adenosine-guanosine nucleoside hydrolase expressed in Escherichia coli.

Chain of Isoleucine--tRNA ligase (P00956 whole entry): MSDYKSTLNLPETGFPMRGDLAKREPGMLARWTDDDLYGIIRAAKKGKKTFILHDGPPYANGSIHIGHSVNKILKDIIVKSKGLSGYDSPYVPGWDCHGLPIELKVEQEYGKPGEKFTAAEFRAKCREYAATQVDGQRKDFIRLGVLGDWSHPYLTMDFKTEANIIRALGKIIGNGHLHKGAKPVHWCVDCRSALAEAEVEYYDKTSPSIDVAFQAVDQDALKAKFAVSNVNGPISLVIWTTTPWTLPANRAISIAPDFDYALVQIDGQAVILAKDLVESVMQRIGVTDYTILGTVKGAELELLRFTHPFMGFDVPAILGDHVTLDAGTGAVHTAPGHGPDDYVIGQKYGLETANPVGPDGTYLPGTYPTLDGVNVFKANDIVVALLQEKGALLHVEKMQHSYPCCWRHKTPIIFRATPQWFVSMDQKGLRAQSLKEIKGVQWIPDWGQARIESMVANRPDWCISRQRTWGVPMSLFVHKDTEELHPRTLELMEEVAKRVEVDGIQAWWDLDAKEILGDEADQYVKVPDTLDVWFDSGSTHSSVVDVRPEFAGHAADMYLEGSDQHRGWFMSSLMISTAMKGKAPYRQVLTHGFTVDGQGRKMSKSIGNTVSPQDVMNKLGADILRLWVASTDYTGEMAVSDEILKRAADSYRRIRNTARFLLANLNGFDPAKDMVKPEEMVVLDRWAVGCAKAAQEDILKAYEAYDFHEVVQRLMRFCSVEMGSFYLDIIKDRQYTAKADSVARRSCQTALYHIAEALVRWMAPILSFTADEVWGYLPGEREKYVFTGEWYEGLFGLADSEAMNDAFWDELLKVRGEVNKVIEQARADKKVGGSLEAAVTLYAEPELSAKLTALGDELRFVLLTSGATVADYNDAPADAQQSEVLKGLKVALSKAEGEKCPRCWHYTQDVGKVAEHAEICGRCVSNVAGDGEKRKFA

`Cn1ncc2c1[C@H](Cn1cnc3c(Cl)nc(N)nc31)C[C@@H]2CO`: the IC50 in [1], in assay [2] and in assay [3] was 3.2 mg/L (≈ 9.59 µM) in each case.
Consider `OCC12CCC(Cn3cnc4c(Cl)ncnc43)(O1)c1ccccc12` (stereo not drawn), for which, in assay [4], the EC50 was determined as 45.1 µM.
The same measure, in the same setting: next, `OC[C@@]12O[C@@](Cn3cnc4c(Cl)ncnc43)(c3ccccc31)[C@H](O)[C@@H]2O`: 45.1 µM.
With `Nc1nc(NC2CCCC2)c2ncn(C[C@@H]3C[C@H](CO)c4c(-c5ccccc5)nnc(-c5ccccc5)c43)c2n1`, in assay [5], inhibition was half-maximal at 65.7 µM (IC50).
The molecule `Nc1ncnc2c1ncn2C[C@H]1C[C@H](OCc2ccccc2)[C@@H](COCc2ccccc2)O1` came in with an IC50 in [6] of 39.9 mg/L (≈ 89.6 µM).
Consider `Nc1ncnc2c1ncn2C[C@H]1CCC[C@H]1CO`, for which the IC50 in assay [7], in [8] and in [9] was 100 mg/L (≈ 404 µM) in each case.
Take `Nc1ccn(C[C@H]2C[C@H](OCc3ccccc3)[C@@H](COCc3ccccc3)O2)c(=O)n1`: in assay [6], the IC50 was determined as 57.4 mg/L (≈ 136 µM).
Take `Cn1ncc2c1[C@H](Cn1ccc(=O)[nH]c1=O)C[C@@H]2CO[Si](c1ccccc1)(c1ccccc1)C(C)(C)C`: the IC50 in assay [1], in [2] and in assay [3] was 3.2 mg/L (≈ 6.22 µM) each time.
In the case of `Nc1nc2c(ncn2COC(CO)CO)c(=O)[nH]1` [GANCICLOVIR], the EC50 in [10] was 0.25 µM; in [11] it was 0.4 µM.
Turning to `O=c1[nH]c(=O)n(C2CCCC2CO)cc1I` (stereo not drawn), the IC50 in assay [7], in assay [8] and in [9] was 65.8 mg/L (≈ 196 µM) throughout.
On to `CC1(C)[C@@H](Cn2cnc3c(NC4CC4)nc(N)nc32)CC[C@@]1(C)CO`, for which the IC50 in assay [5] came to 13.9 mg/L.
In assay [6], `Cc1cn(C[C@H]2C[C@H](OCc3ccccc3)[C@@H](COCc3ccccc3)O2)c(=O)[nH]c1=O` displayed an IC50 of 70.3 mg/L (≈ 161 µM).
In assay [4], `O[C@H]1C[C@@]2(Cn3cnc4c(Cl)ncnc43)O[C@@H]1c1ccccc12` gave an EC50 of 45.1 µM.
`Nc1ncnc2c1ncn2C[C@H]1C[C@H](O)[C@@H](CO)O1` gave an IC50 in assay [6] of 49.2 mg/L (≈ 185 µM).
With `CC(C)(C)[Si](OC[C@H]1C[C@@H](Cn2cnc3c(Cl)nc(N)nc32)c2cn(Cc3ccccc3)nc21)(c1ccccc1)c1ccccc1`, the EC50 in [12] stood at 2.1 µM; in [10], 0.44 µM; in assay [11] it was 0.39 µM.
`OC[C@H]1C[C@@H](Cn2cnc3c(Cl)ncnc32)c2ccccc21`: the IC50 in [1], in [2] and in assay [3] was 24 mg/L (≈ 76.2 µM) throughout.
As to `Cc1cn(C[C@H]2C[C@H](O)[C@@H](CO)O2)c(=O)[nH]c1=O`, the midpoint of inhibition in assay [6], the IC50, lay at 70.4 mg/L (≈ 275 µM).
`OC[C@@H]1C=C[C@H](Cn2cnc3c(O)ncnc32)C1`: the IC50 in assay [5] is more than 200 µM.
`OCC1CCCC1n1cnc2c(Cl)ncnc21` (stereo not drawn): the IC50 in [7], in assay [8] and in assay [9] was 19 mg/L (≈ 75.2 µM) throughout.
For `CSCC[C@H](N)C(=O)OC[C@H]1O[C@@H](CCn2cnc3c(N)ncnc32)[C@H](O)[C@@H]1O`, the IC50 in assay [13] worked out at 8.3 µM.
Turning to `CC[C@H](C)[C@H](N)C(=O)N(O)C[C@H]1O[C@@H](Cn2cnc3c(N)ncnc32)[C@H](O)[C@@H]1O`, the IC50 in assay [14] is more than 128 µM.
On to `Nc1ncnc2c1ncn2C[C@H]1C=C[C@@H](CO)C1`, for which the IC50 in assay [5] is more than 200 µM.
For the molecule `Cn1ncc2c1[C@@H](CO[Si](c1ccccc1)(c1ccccc1)C(C)(C)C)C[C@H]2Cn1cnc2c(O)ncnc21`, the IC50 in assay [1], in [2] and in assay [3] was 3.2 mg/L (≈ 5.94 µM) throughout.
In turn, `O=c1ccn(C[C@H]2C[C@H](OCc3ccccc3)[C@@H](COCc3ccccc3)O2)c(=O)[nH]1` registered an IC50 in assay [6] of 108 mg/L (≈ 256 µM).
For `CCCNc1ncnc2c1ncn2C[C@@H]1C[C@H](CO)c2ccccc21`, the IC50 in assay [1], in [2] and in assay [3] was 24 mg/L (≈ 71.1 µM) each time.
Take `Nc1nc(O)c2ncn(C[C@@H]3N[C@H](CO)[C@@H](O)[C@H]3O)c2n1`: the Ki in assay [15] came out at 5.4 µM; in assay [16] it was 3.6 µM.
`Nc1ncnc2c1N=CC2[C@@H]1N[C@H](CO)[C@@H](O)[C@H]1O` (stereo partly drawn): the values for the Ki in [15] and in [16] were 0.007 µM and 0.003 µM, respectively.
